In patent publication US8524691B2, “Phosphonated rifamycins and uses thereof for the prevention and treatment of bone and joint infections” (The Medicines Company, priority 2008, dated 2013):
Where two headings read alike, the source gives them in different places.

Assays:
[1] = tested on: Novobiocin resistant mutant strain of S. aureus ATCC 13709; assay: Prophylactic efficacy in rat model of S. aureus bone infection; assay type: in vivo; settings: for Measured bacterial titer, test compound: 20 mg/kg parent drug equivalent, tibia 24 h postinfection
Method in brief: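 Female CD rats (n=5/group) received an intra-tibial injection of sodium morrhuate followed by about 2×10^7 CFU of a novobiocin-resistant S. aureus ATCC 13709 mutant. Prodrugs in saline were given as a single IV bolus at set times before infection, and moxifloxacin 10 mg/kg IV at 1 h post-infection. Tibial bacterial load (Log CFU/g bone; detection limit 2 Log) was measured at 24 h and compared by Dunnett's test.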

[2] = tested on: S. aureus ATCC 13709^A, Novobiocin and Rifampicin resistant variant; assay: Antibacterial susceptibility (MIC), NCCLS broth microdilution; assay type: cell-based
Method in brief: (§1)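 Two-fold serial dilutions in DMSO were tested in cation-adjusted Mueller Hinton broth, following NCCLS M26-A, at 5×10^5 c.f.u./mL with 1.25% DMSO final, in duplicate. Plates were incubated at 37 °C for 18 h. MIC was the lowest concentration inhibiting visible growth.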

S. aureus ATCC 29213 = assay: as above; assay type: cell-based; settings: CAMHB, 37° C., 18 h
Method in brief: as §1

S. aureus ATCC 13709 [3] = assay: microbe, parasite or virus in culture; assay type: cell-based; settings: for Minimum inhibitory concentration, S. aureus ATCC 13709: CAMHB, 37° C., 18 h; for Antibacterial activity (in words, from Table 1): S. aureus MIC
Method in brief: as §1

[4] = assay type: in vitro ADME; settings: for % Conversion (prodrug converted to parent drug after binding to bone): 24 h incubation, 37° C.
Procedure: Amounts of parent drug “regenerated” from the phosphonated prodrug were measured as follows. Washed bone powder-bound prodrugs from the above experiment were resuspended in 400 μL PBS+2% DMSO or in 400 μL 50% (v/v in PBS+2% DMSO) human or rat serum. The suspension was incubated overnight at 37° C., centrifuged at 13,000 rpm for 2 min and the supernatant was recovered. The amount of regenerated parent drug in the supernatant was determined by measurements using the microbiological assay that was previously described for the prodrugs themselves. The amount of prodrug was deduced from standard curves of known amounts of parent drug that were used as reference for each experiment. The amount of regenerated drug assessed by this bioassay was corroborated by MIC determination. The percentage of drug regenerated in PBS or serum after the overnight incubation (Table 2) was deduced from the difference between the amount of bound prodrug and the amount of regenerated drug (not shown).

S. aureus ATCC 13709 [5] = assay: microbe, parasite or virus in culture; assay type: cell-based
[6] = single intravenous bolus 1 day prior to infection
[7] = single intravenous bolus 5 days prior to infection

Structure (SMILES) | Measured bacterial titer, test compound [1, 6] | Measured bacterial titer, test compound [1, 7] | Prophylactic activity in rat bone infection model (in words) ([1]; 20 mg/kg, 1 day or 5 days prior to infection) | Minimum inhibitory concentration, S. aureus ATCC 13709^A [2] | Minimum inhibitory concentration, S. aureus ATCC 29213 (S. aureus ATCC 29213) | Minimum inhibitory concentration, S. aureus ATCC 13709 (S. aureus ATCC 13709 [3]) | Antibacterial activity (in words, from Table 1) (S. aureus ATCC 13709 [3]) | Release of parent rifabutin from bone powder-bound prodrug (in words) [4] | % Conversion (prodrug converted to parent drug after binding to bone) ([4]; 50% Heat Inactivated Rat Serum) | % Conversion (prodrug converted to parent drug after binding to bone) ([4]; 50% Rat Serum) | % Conversion (prodrug converted to parent drug after binding to bone) ([4]; PBS) | Minimum inhibitory concentration, ATCC 13709 + 50% Human Serum (S. aureus ATCC 13709 [5]) | Minimum inhibitory concentration, ATCC 13709 + 50% Mouse Serum (S. aureus ATCC 13709 [5]) | Minimum inhibitory concentration, ATCC 13709 + 50% Rat Serum (S. aureus ATCC 13709 [5])
CO[C@H]1/C=C/O[C@@]2(C)Oc3c(C)c(O)c4c(c3C2=O)C2=NC3(CCN(CC(C)C)CC3)N(C(=O)OCc3cc(C)c(OC(=O)CCC(P(=O)(O)O)P(=O)(O)O)c(C)c3)C2=C(NC(=O)/C(C)=C\C=C\[C@H](C)[C@H](O)[C@@H](C)[C@@H](O)[C@@H](C)[C@H](OC(C)=O)[C@@H]1C)C4=O.N.N [Compound 19] | 2.55 ± 0.69 Log CFU/g of bone | 3.69 ± 1.45 Log CFU/g of bone | active at 1 day and display activity similar to rifabutin at 5 days | >128 µg/mL | 0.25 µg/mL | 0.25 µg/mL | very low MICs whether in the absence or in the presence of serum | release significant amounts of the parent rifabutin once bound to bone powder, regardless of the presence of serum | 0.14% | 0.14% | 0.14% | 0.125 µg/mL | 0.0625 µg/mL | 0.0156 µg/mL
CCN(CC)CC.CO[C@H]1/C=C/O[C@@]2(C)Oc3c(C)c(O)c4c(c3C2=O)C2=NC3(CCN(CC(C)C)CC3)NC2=C(NC(=O)/C(C)=C\C=C\[C@H](C)[C@H](OC(=O)CN(C)C(=O)Nc2ccc(CC(P(=O)(O)O)P(=O)(O)O)cc2)[C@@H](C)[C@@H](O)[C@@H](C)[C@H](OC(C)=O)[C@@H]1C)C4=O [Compound 142b] | 2.14 ± 0.08 Log CFU/g of bone | 4.79 ± 1.40 Log CFU/g of bone |  | >128 µg/mL | 0.0625 µg/mL | 0.125 µg/mL | very low MICs whether in the absence or in the presence of serum | release significant amounts of the parent rifabutin once bound to bone powder, regardless of the presence of serum | 0.24 ± 0.04% | 0.22 ± 0.06% | 0.37 ± 0.08% | 0.5 µg/mL | 0.0625 µg/mL | 0.008 µg/mL
